In article PMC3502511, “Inhibition of the Prokaryotic Pentameric Ligand-Gated Ion Channel ELIC by Divalent Cations” (PLoS Biology, 2012):

What was measured:
ELIC E150Q = biological target: T1, ELIC E150Q (Dickeya chrysanthemi, UniProt P0C7B7, E150Q/INS163G); assay: Two-electrode voltage clamp, ELIC E150Q in oocytes; type: cell-based, Erwinia chrysanthemi; conditions: agonist cysteamine
T1 construct: expressed in transfected cells; host or cells: X. laevis oocytes
Description: (§1) Constructs containing the gene of either the WT or mutant channels preceded by the signal sequence of the chicken α7nAchR were cloned into the pTLN vector for expression in X. laevis oocytes. After linearization of the plasmid DNA by MluI, capped complementary RNA was transcribed with the mMessage mMachine kit (Ambion) and purified with the RNeasy kit (Qiagen). For expression, 1–50 ng of RNA was injected into defolliculated oocytes. Two-electrode voltage clamp measurements were performed 1 d after injection at 20°C (OC-725B, Warner Instrument Corp.). Currents were recorded in bath solutions containing 10 mM HEPES (pH 7), 130 mM NaCl, and the indicated concentrations of cysteamine and divalent cations. In case of solutions containing Zn^2+, cysteamine was replaced by propylamine. The membrane potential in all dose–response measurements was set to −40 mV. As ELIC is permeable to divalent cations, we tested if endogenous calcium-activated chloride channels affected our measurements. To chelate intracellular calcium ions, the oocytes were incubated for 15 to 30 min in bath solutions lacking divalent ions but containing 10 µM BAPTA-AM.

ELIC = biological target: T2, ELIC (Dickeya chrysanthemi, UniProt P0C7B7, INS163G); conditions: single channel data; ref Marabelli et al., in preparation; cited from earlier work
T2 construct: expressed in transfected cells; host or cells: HEK 293 cells (ATCC CRL-1573), pcDNA3

ELIC N251A = biological target: T3, ELIC N251A (Dickeya chrysanthemi, UniProt P0C7B7, N250A); assay: Two-electrode voltage clamp, ELIC N251A in oocytes; type: cell-based, Erwinia chrysanthemi; conditions: agonist cysteamine
T3 construct: expressed in transfected cells; host or cells: X. laevis oocytes
Description: as §1

ELIC D113N = biological target: T4, ELIC D113N (Dickeya chrysanthemi, UniProt P0C7B7, D113N/INS163G); assay: Two-electrode voltage clamp, ELIC D113N in oocytes; type: cell-based, Erwinia chrysanthemi; conditions: agonist cysteamine
T4 construct: expressed in transfected cells; host or cells: X. laevis oocytes
Description: as §1

ELIC D86A = biological target: T5, ELIC D86A (Dickeya chrysanthemi, UniProt P0C7B7, D86A/INS163G); assay: Two-electrode voltage clamp, ELIC D86A in oocytes; type: cell-based, Erwinia chrysanthemi; conditions: agonist cysteamine
T5 construct: expressed in transfected cells; host or cells: X. laevis oocytes
Description: as §1

ELIC S84A [1] = assay: Two-electrode voltage clamp, ELIC S84A in oocytes; type: cell-based, Erwinia chrysanthemi; conditions: S84A as printed in the N251A line (r30); Ca^2+ 10 mM; agonist cysteamine
Description: as §1

ELIC S84A [2] = biological target: T6, ELIC S84A (Dickeya chrysanthemi, UniProt P0C7B7, INS163G/S84A); assay: Two-electrode voltage clamp, ELIC S84A in oocytes; type: cell-based, Erwinia chrysanthemi; conditions: S84A, agonist cysteamine
T6 construct: expressed in transfected cells; host or cells: X. laevis oocytes
Description: as §1

ELIC E150A = biological target: T7, ELIC E150A (Dickeya chrysanthemi, UniProt P0C7B7, E150A/INS163G); assay: Two-electrode voltage clamp, ELIC E150A in oocytes; type: cell-based, Erwinia chrysanthemi; conditions: agonist cysteamine
T7 construct: expressed in transfected cells; host or cells: X. laevis oocytes
Description: as §1

ELIC D158N = biological target: T8, ELIC D158N (Dickeya chrysanthemi, UniProt P0C7B7, D158N/INS163G); assay: Two-electrode voltage clamp, ELIC D158N in oocytes; type: cell-based, Erwinia chrysanthemi; conditions: agonist cysteamine
T8 construct: expressed in transfected cells; host or cells: X. laevis oocytes
Description: as §1

ELIC R91A = biological target: T9, ELIC R91A (Dickeya chrysanthemi, UniProt P0C7B7, INS163G/R91A); assay: Two-electrode voltage clamp, ELIC R91A in oocytes; type: cell-based, Erwinia chrysanthemi; conditions: R91A, agonist cysteamine
T9 construct: expressed in transfected cells; host or cells: X. laevis oocytes
Description: as §1

ELIC D113A/D158A = biological target: T10, ELIC D113A/D158A (Dickeya chrysanthemi, UniProt P0C7B7, D113A/D158A/INS163G); assay: cell-based; type: cell-based, Erwinia chrysanthemi; conditions: 113A/158A, agonist cysteamine
T10 construct: expressed in transfected cells; host or cells: X. laevis oocytes
Description: as §1

ELIC WT = biological target: T11, ELIC WT (Dickeya chrysanthemi, UniProt P0C7B7); assay: cell-based; type: cell-based, Erwinia chrysanthemi; conditions: agonist cysteamine
T11 construct: expressed in transfected cells; host or cells: X. laevis oocytes (cRNA injection, pTLN vector)
Description: as §1

ELIC D113A = biological target: T12, ELIC D113A (Dickeya chrysanthemi, UniProt P0C7B7, D113A/INS163G); assay: Two-electrode voltage clamp, ELIC D113A in oocytes; type: cell-based, Erwinia chrysanthemi; conditions: agonist cysteamine
T12 construct: expressed in transfected cells; host or cells: X. laevis oocytes
Description: as §1

## NCCS [cysteamine]
ELIC E150Q; Ca^2+ 0 mM
  EC50: 2920 µM
ELIC E150Q; Ca^2+ 1 mM
  EC50: 5290 µM
ELIC E150Q; Ca^2+ 5 mM
  EC50: 14600 µM
ELIC E150Q; Ca^2+ 10 mM
  EC50: 21900 µM
ELIC
  maximum Popen: 98%
ELIC N251A; Ca^2+ 0 mM
  EC50: 290 µM
ELIC N251A; Ca^2+ 1 mM
  EC50: 840 µM
ELIC N251A; Ca^2+ 5 mM
  EC50: 1900 µM
ELIC D113N; Ca^2+ 0 mM
  EC50: 920 µM
ELIC D113N; Ca^2+ 1 mM
  EC50: 1810 µM
ELIC D113N; Ca^2+ 5 mM
  EC50: 5590 µM
ELIC D113N; Ca^2+ 10 mM
  EC50: 9780 µM
ELIC D86A; Ca^2+ 0 mM
  EC50: 570 µM
ELIC D86A; Ca^2+ 1 mM
  EC50: 2300 µM
ELIC D86A; Ca^2+ 5 mM
  EC50: 5310 µM
ELIC D86A; Ca^2+ 10 mM
  EC50: 11200 µM
ELIC S84A [1]
  EC50: 5310 µM
ELIC S84A [2]; Ca^2+ 0 mM
  EC50: 360 µM
ELIC S84A [2]; Ca^2+ 1 mM
  EC50: 1550 µM
ELIC S84A [2]; Ca^2+ 5 mM
  EC50: 2740 µM
ELIC S84A [2]; Ca^2+ 10 mM
  EC50: 5430 µM
ELIC E150A; Ca^2+ 0 mM
  EC50: 1400 µM
ELIC E150A; Ca^2+ 1 mM
  EC50: 2200 µM
ELIC E150A; Ca^2+ 5 mM
  EC50: 6100 µM
ELIC E150A; Ca^2+ 10 mM
  EC50: 8990 µM
ELIC D158N; Ca^2+ 0 mM
  EC50: 3880 µM
ELIC D158N; Ca^2+ 1 mM
  EC50: 5610 µM
ELIC D158N; Ca^2+ 5 mM
  EC50: 8500 µM
ELIC D158N; Ca^2+ 10 mM
  EC50: 11200 µM
ELIC R91A; ACh 1 mM
  EC50: 400 µM
ELIC R91A; ACh 5 mM
  EC50: 880 µM
ELIC R91A; ACh 10 mM
  EC50: 1780 µM
ELIC R91A; Ca^2+ 0 mM
  EC50: 90 µM
ELIC R91A; Ca^2+ 0.5 mM
  EC50: 240 µM
ELIC R91A; Ca^2+ 1 mM
  EC50: 410 µM
ELIC R91A; Ca^2+ 5 mM
  EC50: 920 µM
ELIC R91A; TMA 10 mM
  EC50: 230 µM
ELIC R91A; TMA 25 mM
  EC50: 330 µM
ELIC R91A; TMA 50 mM
  EC50: 590 µM
ELIC D113A/D158A; Ba^2+ 1 mM
  EC50: 3070 µM
ELIC D113A/D158A; Ba^2+ 5 mM
  EC50: 3070 µM
ELIC D113A/D158A; Ba^2+ 10 mM
  EC50: 5420 µM
ELIC D113A/D158A; Ca^2+ 0 mM
  EC50: 2330 µM
ELIC D113A/D158A; Ca^2+ 1 mM
  EC50: 1590 µM
ELIC D113A/D158A; Ca^2+ 5 mM
  EC50: 1810 µM
ELIC D113A/D158A; Ca^2+ 10 mM
  EC50: 2960 µM
ELIC D113A/D158A; Ca^2+ 25 mM
  EC50: 3350 µM
ELIC WT; WT/0.25Ca^2+, ACh 0 mM
  EC50: 640 µM
ELIC WT; WT/0.25Ca^2+, ACh 1 mM
  EC50: 1160 µM
ELIC WT; WT/0.25Ca^2+, ACh 5 mM
  EC50: 3460 µM
ELIC WT; WT/0.25Ca^2+, ACh 10 mM
  EC50: 5080 µM
ELIC WT; WT/0.5Ca^2+, ACh 0 mM
  EC50: 1000 µM
ELIC WT; WT/0.5Ca^2+, ACh 1 mM
  EC50: 1830 µM
ELIC WT; WT/0.5Ca^2+, ACh 5 mM
  EC50: 4030 µM
ELIC WT; WT/0.5Ca^2+, ACh 10 mM
  EC50: 8450 µM
ELIC WT; WT/1Ca^2+, ACh 0 mM
  EC50: 1730 µM
ELIC WT; WT/1Ca^2+, ACh 1 mM
  EC50: 2680 µM
ELIC WT; WT/1Ca^2+, ACh 5 mM
  EC50: 5120 µM
ELIC WT; WT/1Ca^2+, ACh 10 mM
  EC50: 8240 µM
ELIC WT; WT/BAPTA, Ca^2+ 0 mM
  EC50: 360 µM
ELIC WT; WT/BAPTA, Ca^2+ 0.25 mM
  EC50: 840 µM
ELIC WT; WT/BAPTA, Ca^2+ 0.5 mM
  EC50: 1070 µM
ELIC WT; WT/BAPTA, Ca^2+ 1.0 mM
  EC50: 2230 µM
ELIC WT; WT, ACh 1 mM
  EC50: 570 µM
ELIC WT; WT, ACh 5.0 mM
  EC50: 1490 µM
ELIC WT; WT, ACh 10.0 mM
  EC50: 2250 µM
ELIC WT; WT, Ba^2+ 1 mM
  EC50: 760 µM
ELIC WT; WT, Ba^2+ 5 mM
  EC50: 2680 µM
ELIC WT; WT, Ba^2+ 10 mM
  EC50: 5270 µM
ELIC WT; WT, Ca^2+ 0 mM
  EC50: 360 µM
ELIC WT; WT, Ca^2+ 0.1 mM
  EC50: 350 µM
ELIC WT; WT, Ca^2+ 0.25 mM
  EC50: 640 µM
ELIC WT; WT, Ca^2+ 0.5 mM
  EC50: 1000 µM
ELIC WT; WT, Ca^2+ 1.0 mM
  EC50: 1730 µM
ELIC WT; WT, Ca^2+ 2.5 mM
  EC50: 2460 µM
ELIC WT; WT, Ca^2+ 5.0 mM
  EC50: 4370 µM
ELIC WT; WT, Mg^2+ 1 mM
  EC50: 1040 µM
ELIC WT; WT, Mg^2+ 5 mM
  EC50: 3050 µM
ELIC WT; WT, Mg^2+ 10 mM
  EC50: 5310 µM
ELIC WT; WT, Sr^2+ 1 mM
  EC50: 750 µM
ELIC WT; WT, Sr^2+ 5 mM
  EC50: 2110 µM
ELIC WT; WT, Sr^2+ 10 mM
  EC50: 3410 µM
ELIC D113A; Ca^2+ 0 mM
  EC50: 950 µM
ELIC D113A; Ca^2+ 1 mM
  EC50: 880 µM
ELIC D113A; Ca^2+ 2.5 mM
  EC50: 1460 µM
ELIC D113A; Ca^2+ 5 mM
  EC50: 1860 µM
ELIC D113A; Ca^2+ 10 mM
  EC50: 2900 µM
ELIC D113A; Ca^2+ 25 mM
  EC50: 6370 µM
